Experimental data as given in US20240130988A1, “Use of stilbene compounds in the preparation of anti-tumor drugs” (Guangzhou AnHao Pharmaceutical Technology CO., LTD., priority 2022, published 2024).

System: human gastric cancer SGC7901
Assay: Compound 6 combined with paclitaxel, human gastric cancer SGC7901 xenograft in nude mice
Assay type: in vivo
Conditions: paclitaxel 10 mg/kg iv, compound 6 200 mg/kg ip, combination 10 + 200
Description: Experimental method: The model of human gastric cancer SGC7901 transplant tumor in nude mice was established by subcutaneously inoculating human gastric cancer SGC7901 cell lines into the armpits of nude mice. Cells were inoculated in an amount of 1×10^6, and after formation of the transplanted tumors by inoculation, the cells were passed 3 generations in nude mice before use. The vigorous growth of tumor tissue was cut into approximate 1.5 mm^3, and homogenized under sterile conditions, to prepare 1×10^7/mL of cell suspension. 0.1 mL of cell suspension was subcutaneously inoculated into the right armpit of nude mice. For transplanted tumors in nude mice, the diameter was measured with vernier caliper. After the tumor grew to 100 mm^3, the animals were randomly divided into groups, with 6 mice in each group. […] The measurement frequency of tumor diameter was once every three days. The dosage by volume was 0.1 mL/20 g. The mice in the negative control group were given an equal amount of physiological saline by intravenous injection. The effect of combined medicaments was evaluated based on the Q value calculated by Jin's formula: […]
Ea+b represents the tumor inhibitory rate of the combined medicaments, while Ea and Eb represent the tumor inhibitory rates of medicament A and medicament B, respectively.

COc1ccc(/C=C(/C(=O)O)c2cc(OC)c(OC)c(OC)c2)cc1O [Compound 6, (E)-3-(3-hydroxy-4-methoxyphenyl)-2-(3,4,5-trimethoxyphenyl)acrylic acid]
RTV (d 21): 6.21 ± 1.88
Terminal weight: 22.9 ± 1.2 g
Tumor inhibitory rate %: 54.07%
